PMC3787745, “Yeast Mnn9 is both a priming glycosyltransferase and an allosteric activator of mannan biosynthesis” (Open Biology, 2013)

Target: T1, ScVan1 with ScMnn9 (M-Pol I complex) (Saccharomyces cerevisiae, UniProt P23642)
T1 construct: gene VAN1; separately expressed glycosyltransferase domains (Van1 87-535, Mnn9 93-395) mixed; heterodimer; MBP-His6 tags cleaved by TEV; E. coli BL21(DE3) pLysS; with Mannan polymerase complexes subunit MNN9
Experiment: FACE gel of ANTS-labelled products
Type: biochemical
Settings: donor 1.2 mM; acceptor 10 mM α-1,6-mannobiose; 10 mM MnCl2; 20 mM HEPES pH 7.5; 30°C; both subunits wild-type

T1 sequence (P23642 87-535): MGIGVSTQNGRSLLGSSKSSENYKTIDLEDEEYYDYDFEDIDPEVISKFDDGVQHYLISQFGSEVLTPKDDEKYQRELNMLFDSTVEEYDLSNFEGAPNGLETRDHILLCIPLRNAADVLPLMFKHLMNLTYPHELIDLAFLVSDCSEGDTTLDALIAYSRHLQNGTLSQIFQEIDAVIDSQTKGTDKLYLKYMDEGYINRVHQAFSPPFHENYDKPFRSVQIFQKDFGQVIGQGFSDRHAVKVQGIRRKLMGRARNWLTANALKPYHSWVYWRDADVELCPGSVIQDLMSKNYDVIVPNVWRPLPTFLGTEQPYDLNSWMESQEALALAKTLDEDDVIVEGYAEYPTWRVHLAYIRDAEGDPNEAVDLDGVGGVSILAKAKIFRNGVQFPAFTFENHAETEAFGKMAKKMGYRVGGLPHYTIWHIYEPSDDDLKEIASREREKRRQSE
T1 sequence (P39107 93-395 partner): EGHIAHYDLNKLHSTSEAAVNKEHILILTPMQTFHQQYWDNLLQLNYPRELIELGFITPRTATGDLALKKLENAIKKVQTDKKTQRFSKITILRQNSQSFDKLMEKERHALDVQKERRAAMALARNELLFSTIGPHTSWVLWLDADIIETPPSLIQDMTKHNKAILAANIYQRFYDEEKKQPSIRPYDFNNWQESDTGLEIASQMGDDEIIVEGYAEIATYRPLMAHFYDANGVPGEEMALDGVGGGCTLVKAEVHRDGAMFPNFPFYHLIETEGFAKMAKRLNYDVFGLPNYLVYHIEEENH

Nc1nc2c(ncn2[C@@H]2O[C@H](COP(=O)(O)OP(=O)(O)O[C@H]3O[C@H](CO)[C@@H](O)[C@H](O)[C@@H]3O)[C@@H](O)[C@H]2O)c(=O)[nH]1 [GDP-Man]
FACE gel of ANTS-labelled products: ScMnn9, ScVan1, GDP-Man, α-1,6-mannobiose and MnCl2 were incubated
